A word on the T/C: it is the ratio of treated to control.

Here are results for 21 molecules from PubChem BioAssay AID180 (DTP/NCI, 2004).

Several values for one entry are separate records, joined by “and”; a condition that tells them apart may be missing. Identical values can stand only once.

The subject of the experiment is BDF1 mice, Adenocarcinoma 755 s.c., tumor weight T/C. The experiment in a line: NCI In Vivo Anticancer Drug Screen. Data for tumor model Adenocarcinoma 755 (subcutaneous) in B6D2F1 (BDF1) mice. The note with it: endpoint: mean tumor weight, schedule: Q01DX011 (ip), higher = larger tumour. In outline: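 Values express treated (T) relative to vehicle-dosed control (C) animals, based on survival or tumour size measured after compound treatment of mice bearing a transplanted tumour.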

Where [1] appears, read: dose: 12.5 mg/kg/injection, vehicle: methylcellulose (MC).
The mark [2] stands for this setting: dose: 15.0 mg/kg/injection, vehicle: methylcellulose (MC).
Setting [3] is: dose: 31.0 mg/kg/injection, vehicle: methylcellulose (MC).
Setting [4] is: dose: 125.0 mg/kg/injection, vehicle: methylcellulose (MC).
Where [5] appears, read: dose: 12.5 mg/kg/injection, vehicle: saline.
Setting [6] is: dose: 25.0 mg/kg/injection, vehicle: saline.
Setting [7] is: dose: 30.0 mg/kg/injection, vehicle: carboxymethylcellulose (CMC).
The mark [8] stands for this setting: dose: 15.0 mg/kg/injection, vehicle: saline.
Setting [9] is: dose: 125.0 mg/kg/injection, vehicle: saline.
[10] abbreviates: dose: 250.0 mg/kg/injection, vehicle: saline.

With `Cc1ccc(N2CCN(CCCN3CCN(c4ccc(Cl)cc4)CC3)CC2)cc1`, the T/C (dose: 0.05 mg/kg/injection, vehicle: carboxymethylcellulose (CMC)) was 100 % of control; the T/C (dose: 0.09 mg/kg/injection, vehicle: carboxymethylcellulose (CMC)) was 66 % of control; the T/C (dose: 0.18 mg/kg/injection, vehicle: carboxymethylcellulose (CMC)) is 116 % of control; the T/C (dose: 0.37 mg/kg/injection, vehicle: carboxymethylcellulose (CMC)) is 104 % of control; the T/C (dose: 0.75 mg/kg/injection, vehicle: methylcellulose (MC)) was 38 % of control; the T/C (dose: 1.5 mg/kg/injection, vehicle: methylcellulose (MC)) was 37 % of control. In addition, the T/C is, setting by setting: under setting [1], 76 % of control; (dose: 25.0 mg/kg/injection, vehicle: methylcellulose (MC)) 48 % of control; (dose: 50.0 mg/kg/injection, vehicle: methylcellulose (MC)) 42 % of control and 46 % of control.

With `Nc1ncnc2c1ccn2C1OC(CO)C(O)C1O` (stereo not drawn), the T/C runs as follows: (dose: 0.5 mg/kg/injection, vehicle: carboxymethylcellulose (CMC)) 68 % of control; (dose: 1.0 mg/kg/injection, vehicle: carboxymethylcellulose (CMC)) 76 % of control.

As to `Nc1nc(O)c(Br)c(=O)[nH]1`, the T/C under setting [2] was 86 % of control; the T/C under setting [3] was 69 % of control; the T/C (dose: 62.0 mg/kg/injection, vehicle: methylcellulose (MC)) was 68 % of control.

Take `CNc1nc(SCc2ccccc2)ncc1C`: the T/C by setting is: under setting [3], 60 % of control; under setting [4], 82 % of control; (dose: 250.0 mg/kg/injection, vehicle: methylcellulose (MC)) 52 % of control.

With `CCCCN(C)N=Nc1ccc(C(=O)OCC)cc1`, the T/C is 37 % of control (dose: 125.0 mg/kg/injection, vehicle: other) and 31 % of control (dose: 200.0 mg/kg/injection, vehicle: other).

Consider `Nc1ccccc1N`, for which the T/C was 80 % of control (dose: 31.25 mg/kg/injection, vehicle: methylcellulose (MC)); 40 % of control (dose: 62.5 mg/kg/injection, vehicle: methylcellulose (MC)); 55 % of control under setting [4].

For `[OH-].[OH-].[Pd+2].c1ccc(CSc2ncnc3nc[nH]c23)cc1.c1ccc(CSc2ncnc3nc[nH]c23)cc1.c1ccc(CSc2ncnc3nc[nH]c23)cc1.c1ccc(CSc2ncnc3nc[nH]c23)cc1`, the T/C is 76 % of control (dose: 3.0 mg/kg/injection, vehicle: saline); 36 % of control (dose: 6.0 mg/kg/injection, vehicle: saline); 17 % of control (dose: 12.0 mg/kg/injection, vehicle: saline); 16 % of control under setting [5]; 1 % of control under setting [6]; 1 % of control (dose: 50.0 mg/kg/injection, vehicle: saline). In addition, the T/C is 1 % of control (dose: 100.0 mg/kg/injection, vehicle: saline) and 1 % of control (dose: 200.0 mg/kg/injection, vehicle: saline).

On to `O=c1[nH]c2cnc(Cl)nc2[nH]1`, for which the T/C under setting [7] is 116 % of control; the T/C (dose: 60.0 mg/kg/injection, vehicle: carboxymethylcellulose (CMC)) is 85 % of control; the T/C (dose: 120.0 mg/kg/injection, vehicle: carboxymethylcellulose (CMC)) was 168 % of control.

`CCCCN(C)N=Nc1ccc(OCC(=O)NN)cc1`: the T/C (dose: 50.0 mg/kg/injection, vehicle: carboxymethylcellulose (CMC)) is 75 % of control.

Regarding `COc1cc(C(=O)O)nc(N)n1`, the T/C is, setting by setting: under setting [8], 111 % of control; under setting [9], 100 % of control; under setting [10], 161 % of control.

Turning to `C=CCOP(=O)(N1CC1CC)N1CC1CC` (stereo not drawn), the T/C was 69 % of control (dose: 17.0 mg/kg/injection, vehicle: saline); 50 % of control (dose: 33.0 mg/kg/injection, vehicle: saline); 18 % of control (dose: 66.0 mg/kg/injection, vehicle: saline).

On to `Nc1nc(N)c(N)c(Nc2ccc(Br)cc2)n1`, for which the T/C by setting is: under setting [8], 91 % of control; (dose: 31.0 mg/kg/injection, vehicle: saline) 32 % of control.

`CCCCN(C)N=Nc1ccc(CCC(=O)OCC)cc1`: the T/C (dose: 62.5 mg/kg/injection, vehicle: saline) is 95 % of control; the T/C under setting [9] is 38 % of control; the T/C under setting [10] was 80 % of control.

For `CC(C)CSc1ncnc2nc[nH]c12`, the T/C was 45 % of control (dose: 6.0 mg/kg/injection, vehicle: other); 19 % of control (dose: 11.0 mg/kg/injection, vehicle: other); 5 % of control (dose: 22.0 mg/kg/injection, vehicle: other); 1 % of control (dose: 31.0 mg/kg/injection, vehicle: other); 7 % of control (dose: 45.0 mg/kg/injection, vehicle: other).

Regarding `Cc1cc(NC(=O)c2ccc(C(=O)Nc3ccc(N=Nc4cc(S(=O)(=O)O)c5cccc(S(=O)(=O)O)c5c4)c(C)c3)cc2)ccc1N=Nc1cc(S(=O)(=O)O)c2cccc(S(=O)(=O)O)c2c1`, the T/C under setting [7] is 114 % of control.

With `Cn1c(=O)c2c(nc(N(CCO)CCO)n2C)n(C)c1=O`, the T/C (dose: 480.0 mg/kg/injection, vehicle: saline) is 112 % of control.

Turning to `CSc1nc(N)nc2c1ncn2C1OC(CO)C(O)C1O` (stereo not drawn), the T/C by setting is: (dose: 8.2 mg/kg/injection, vehicle: carboxymethylcellulose (CMC)) 82 % of control; (dose: 16.5 mg/kg/injection, vehicle: carboxymethylcellulose (CMC)) 53 % of control; (dose: 33.0 mg/kg/injection, vehicle: carboxymethylcellulose (CMC)) 20 % of control; (dose: 66.0 mg/kg/injection, vehicle: carboxymethylcellulose (CMC)) 9 % of control; (dose: 66.25 mg/kg/injection, vehicle: methylcellulose (MC)) 9 % of control; (dose: 112.5 mg/kg/injection, vehicle: methylcellulose (MC)) 4 % of control.

Regarding `CC(C)Cn1cnc2c(SCc3ccccc3)nc(N)nc21`, the T/C (dose: 37.5 mg/kg/injection, vehicle: methylcellulose (MC)) is 62 % of control; the T/C (dose: 75.0 mg/kg/injection, vehicle: methylcellulose (MC)) was 27 % of control; the T/C (dose: 150.0 mg/kg/injection, vehicle: methylcellulose (MC)) is 20 % of control; the T/C (dose: 300.0 mg/kg/injection, vehicle: methylcellulose (MC)) was 4 % of control.

With `CN(C)c1ccc(/C=C/C2=[N+](C)c3ccccc3C2(C)C)cc1`, the T/C (dose: 2.0 mg/kg/injection, vehicle: other) is 81 % of control.

As for `CCCNc1ncnc2c1cnn2C`, the T/C is, setting by setting: (dose: 3.12 mg/kg/injection, vehicle: methylcellulose (MC)) 84 % of control; (dose: 3.12 mg/kg/injection, vehicle: saline) 101 % of control; (dose: 6.25 mg/kg/injection, vehicle: methylcellulose (MC)) 80 % of control; (dose: 6.25 mg/kg/injection, vehicle: saline) 86 % of control; under setting [1], 32 % of control; under setting [5], 19 % of control. In addition, under setting [6], the T/C is 8 % of control.

As to `O=C(Nc1ccc(C2=NCCN2)cc1)c1ccc(N=Nc2ccc(C(=O)Nc3ccc(C4=NCCN4)cc3)cc2)cc1`, the T/C is 151 % of control under setting [2]; 119 % of control (dose: 30.0 mg/kg/injection, vehicle: methylcellulose (MC)); 100 % of control (dose: 120.0 mg/kg/injection, vehicle: methylcellulose (MC)).
